Usually IC50 stands for the concentration that gives 50% inhibition.

The values that follow come from PubChem BioAssay AID504322 (Emory University Molecular Libraries Screening Center, 2011).

Molecules are shown by their SMILES. The source made the active and inactive calls. No rule for the calls is given here.

The subject of this assay is CHOP reporter cell assay, percent of control. The experiment in a line: CHOP reporter inhibitor potency, dose response, cell-based (AID 504322).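 Also: CHO cells carrying a CHOP reporter stimulated with tunicamycin to induce ER stress; potency is for inhibition of the stress-induced reporter signal.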
With `O=[N+]([O-])c1ccc(/C=N/n2c(C3CCCCC3)n[nH]c2=S)cc1`, the IC50 is 9.52 µM (inactive).
With `O=C1/C(=C/c2ccncc2)SC(=S)N1C1CCS(=O)(=O)C1` (stereo unspecified), the IC50 was 9.91 µM (inactive).
Take `CNC(=O)c1nnsc1S(=O)(=O)c1ccc(Cl)cc1`: the IC50 was 4.03 µM.
Consider `CCCNC(=O)c1nnsc1S(=O)c1ccc(Cl)cc1` (stereo unspecified), for which the IC50 was 5.55 µM (inactive).
On to `CC(C)(C)c1ccc(-c2noc(CCC(N)=O)n2)cc1`, for which the IC50 is under 0.16 µM.
On to `CC(C)Cn1c(=O)c2ccccc2n2c(SCC(=O)N3c4ccccc4CC3C)nnc12` (stereo unspecified), for which the IC50 was > 10 µM (inactive).
Turning to `Cc1ccc(NC(=O)O/N=C/c2c(C)nn(C(C)(C)C)c2C)cc1Cl`, the IC50 was under 0.16 µM.
For the compound `CCOc1ccc(C2=C/C(=C/c3cccnc3)C(=O)O2)cc1`, the IC50 was 9.39 µM (inactive).
Consider `Oc1ccc(Br)cc1-c1nc2cnccn2c1NC1CCCCC1`, for which the IC50 is > 10 µM (inactive).
Take `COc1ccc(C(=O)/C=C/C(=O)N(CC(=O)NCCC(C)C)Cc2cccs2)c(O)c1`: the IC50 is 9.55 µM (inactive).
To `CC1CCc2c(sc3ncn(CC(=O)N=Nc4c(O)[nH]c5ccccc45)c(=O)c23)C1` (stereo unspecified) belongs 7.42 µM (inactive); to `CCCOC(=O)c1ccc(Oc2c(-c3ccc(OCC)cc3O)n[nH]c2C)cc1`, 2.34 µM; to `N=c1n(CC(=O)c2ccc([N+](=O)[O-])cc2)c2ccccc2n1Cc1ccc(Cl)cc1`, > 10 µM (inactive).
For `CCCCC(CC)Cn1c2nc3ccccc3nc2c2c(=N)oc(C)nc21` (stereo unspecified), the IC50 is 7.13 µM (inactive).
The result for `CC(C)CCn1c(=O)c(C(=O)N/N=C/c2cccc(F)c2)c(O)c2ccccc21` reads 2.97 µM; that for `Cc1ccc(C(C(=O)NC2CCCCC2)N(C(=O)Cc2c[nH]c3ccccc23)c2ccccc2C)o1` (stereo unspecified), > 10 µM (inactive).
Take `CCCCCc1c(C)nc(Nc2ccccc2)[nH]c1=O`: the IC50 is 9.72 µM (inactive).
Regarding `Cc1nc(Nc2ccc(F)cc2)[nH]c(=O)c1CCC(C)C`, the IC50 was 2.43 µM.
In the case of `CC(C)Oc1cc(NC(=O)CS(=O)CC(=O)Nc2cccc(C(F)(F)F)c2)c(Cl)cc1Cl` (stereo unspecified), the IC50 is 7.99 µM (inactive).
The result for `CCOC(=O)c1c2ccc(OCC(=O)N/N=C/c3ccc(C)cc3)cc2n2ccccc12` reads 9.52 µM (inactive).
On to `COc1cc(/C=N/NC(=O)Nc2ccccc2)ccc1OCCOc1ccccc1C`, for which the IC50 is 9.34 µM (inactive).
Take `O=C1C(C2=NC(c3ccccn3)C3C(=O)N(c4ccc(Cl)cc4Cl)C(=O)C23)=C(O)c2ccccc21` (stereo unspecified): the IC50 is 7.17 µM (inactive).
The result for `COC(=O)C(O)(c1ccc(NC(=S)NC(=O)c2ccc(Cl)cc2Cl)c(C)c1)C(F)(F)F` (stereo unspecified) reads 9.05 µM (inactive).
For the compound `Cc1cc(C2(c3ccc(O)c(C)c3)C(=O)Nc3ccccc32)ccc1O`, the IC50 is > 10 µM (inactive).
`COC(=O)c1ccc2c(=O)n(CCCCCC(=O)N3CCN(c4ccccc4)CC3)c(=O)[nH]c2c1`: the IC50 is 9.65 µM (inactive).
The result for `COc1cc(/C=C/C(=O)OC2CC3CCC2(C)C3(C)C)ccc1O` (stereo unspecified) reads 9.52 µM (inactive); that for `Oc1ccc(Oc2ccc3c(C(F)(F)F)cc(C(F)(F)F)nc3n2)cc1`, 9.36 µM (inactive); that for `O=C1C(Nc2ccc(O)cc2)=C/C(=N/S(=O)(=O)c2cccs2)c2ccccc21`, 1.19 µM.
The result for `CC1=NNC(=O)/C1=C\c1cn(-c2ccccc2)nc1-c1ccc(F)cc1` reads 9.5 µM (inactive); that for `CCCCn1c(NS(=O)(=O)c2ccccc2)c(S(=O)(=O)c2ccc(C)cc2)c2nc3ccccc3nc21`, 9.67 µM (inactive).
Consider `Cc1ccc(CNCC(O)(c2ccccc2)c2ccc(Cl)cc2)cc1` (stereo unspecified), for which the IC50 is 9.63 µM (inactive).
As to `FC(F)(F)c1cccc(NC(=S)NC(c2ccccc2)c2ccccc2)c1`, the IC50 was 9.54 µM (inactive).
In the case of `CCOC(=O)CCS(=O)(=O)c1nc(-c2ccccc2)cc(C(F)(F)F)n1`, the IC50 was under 0.16 µM.
As to `CC1=C(C)/C(=N\OS(=O)(=O)c2ccc(C)cc2)C=CC1=O`, the IC50 is 3.68 µM (inactive).
As for `CC(=O)OC[C@]12CCC(C)=C[C@H]1O[C@@H]1[C@H](O)[C@@H](OC(C)=O)[C@@]2(C)[C@]12CO2`, the IC50 is < 0.16 µM (inactive).
For `CC(=O)N(C1=C(Cl)C(=O)c2ccccc2C1=O)C1CCCCC1`, the IC50 was 8.08 µM (inactive).
In the case of `O=[N+]([O-])c1c(NCCCO)cc(Sc2ccc(Cl)cc2)c2nonc12`, the IC50 is 4.7 µM.
With `COc1ccc2c(C)nc(Nc3nc(C)c(C)c(=O)[nH]3)nc2c1`, the IC50 was 9.72 µM (inactive).
`CCCCn1c(N2CCC(Cc3ccccc3)CC2)nc2c1c(=O)[nH]c(=O)n2C`: the IC50 was 6.06 µM (inactive).
Consider `CC(C)Oc1ccc(CNC(=O)CC(c2ccccc2)c2cc(Cl)ccc2O)cc1` (stereo unspecified), for which the IC50 was 9.59 µM (inactive).
`NC(=O)c1ccc(C(F)(F)F)n(Cc2ccc(Cl)cc2)c1=O`: the IC50 is 9.05 µM (inactive).
